Like-named read-outs stand apart in the source and are kept apart here.
Columns and labels:
[1] = biological target: Avi-tagged FL MALT-1 (Homo sapiens (Human), UniProt Q9UDY8); assay: MALT-1 Fluorogenic Peptide Cleavage Assay (MALT1 inhibition assay); format: biochemical; details: Ac-LRSR-AMC peptide substrate, 30 min pre-incubation, 90 min reaction at room temperature
How it was run: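 Cleavage of Ac-LRSR-AMC, read as fluorescence at 342/441 nm after 90 min at room temperature, with substrate working stocks of 50 μM (Km) or 280 μM (10×Km). Enzyme, Avi-tagged full-length MALT-1 (40 nM stock), was first pre-incubated 30 min with compound in citrate/HEPES pH 6.89 buffer with TCEP, EDTA, CHAPS and 2% DMSO; IC50 fitted from normalised % inhibition.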

[2] = test system: NF-kB reporter in Jurkat cells; assay: NF-kB reporter assay in Jurkat cells stimulated with aCD3/aCD28/PMA; format: cell-based; details: read-out: NF-kB Reporter Assay IC50
How it was run: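 Luminescence (One-Glo) from the NF-kB reporter yielded IC50 values. Stimulation lasted 4 h at 37° C with aCD3, aCD28 and PMA (final 5, 5 and 0.03 […]), after 1 h compound pre-exposure of 25,000 Jurkat cells per well in serum-free RPMI.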

[3] = Homo sapiens, Jurkat cells, 1 hr compound pre-incubation, aCD3/aCD28/PMA stimulation 4 hr, One-Glo readout

Chain of Avi-tagged FL MALT-1 (Q9UDY8 whole entry): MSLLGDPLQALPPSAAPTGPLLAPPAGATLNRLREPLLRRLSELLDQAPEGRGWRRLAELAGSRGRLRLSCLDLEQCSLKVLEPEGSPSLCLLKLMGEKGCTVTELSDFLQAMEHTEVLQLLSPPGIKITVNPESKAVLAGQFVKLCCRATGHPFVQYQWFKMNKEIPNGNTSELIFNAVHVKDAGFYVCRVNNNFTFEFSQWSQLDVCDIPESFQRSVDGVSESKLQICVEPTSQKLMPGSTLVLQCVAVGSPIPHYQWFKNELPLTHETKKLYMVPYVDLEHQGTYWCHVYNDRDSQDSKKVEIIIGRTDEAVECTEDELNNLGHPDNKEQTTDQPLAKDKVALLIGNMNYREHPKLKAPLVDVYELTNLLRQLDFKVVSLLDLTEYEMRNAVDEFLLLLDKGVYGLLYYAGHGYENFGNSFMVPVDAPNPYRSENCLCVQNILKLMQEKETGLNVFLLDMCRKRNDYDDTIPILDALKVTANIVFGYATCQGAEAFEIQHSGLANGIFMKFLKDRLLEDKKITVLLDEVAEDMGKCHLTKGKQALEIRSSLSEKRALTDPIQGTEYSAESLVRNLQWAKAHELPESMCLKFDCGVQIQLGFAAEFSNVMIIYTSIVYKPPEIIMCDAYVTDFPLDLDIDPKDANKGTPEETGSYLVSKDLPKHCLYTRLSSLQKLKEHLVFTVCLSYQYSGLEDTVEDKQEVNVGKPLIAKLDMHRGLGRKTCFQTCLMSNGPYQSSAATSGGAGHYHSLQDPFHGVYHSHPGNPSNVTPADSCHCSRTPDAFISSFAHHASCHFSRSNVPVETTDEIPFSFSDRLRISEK

| Structure (SMILES) | IC50 [1] [nM] | IC50 [2, 3] [nM] | IC50 ([2]; Homo sapiens, Jurkat) [nM] | IC50 ([2]; Jurkat cells, 1 hr compound pre-incubation, aCD3/aCD28/PMA stimulation 4 hr, One-Glo readout) [nM] |
| --- | --- | --- | --- | --- |
| [2H]C([2H])([2H])Oc1ccc2cnn(C([2H])([2H])[2H])c2c1NS(=O)(=O)c1cnn(-c2cc(C(F)(F)F)ccn2)c1 [Compound I-476, N-(6-(methoxy-d3)-1-(methyl-d3)-1H-indazol-7-yl)-1-(4-(trifluoromethyl)pyridin-2-yl)-1H-pyrazole-4-sulfonamide] | ≤ 400 | < 400 |  |  |
| COc1ccc2cnn(C)c2c1NS(=O)(=O)c1cnn(-c2cc(N3CC[C@H](C)C3)ccn2)c1 [Compound I-402] | > 2500 | < 400 |  |  |
| CC(C)Oc1ccc2cnn(C)c2c1NS(=O)(=O)c1cnn(-c2ccnc(C(F)(F)F)c2)c1 [Compound I-10, N-(6-Isopropoxy-1-Methyl-1H-Indazol-7-yl)-1-(2-(Trifluoromethyl)Pyridin-4-yl)-1H-Pyrazole-4-Sulfonamide] | ≤ 400 | 400 to 1000 |  |  |
| CC1CCN(c2ccnc(-n3cc(S(=O)(=O)Nc4cccc5cnn(C)c45)cn3)c2)CC1 [Compound I-390, N-(1-methylindazol-7-yl)-1-[4-(4-methylpiperidin-1-yl)pyridin-2-yl]pyrazole-4-sulfonamide] | > 2500 | < 400 |  |  |
| Cc1n[nH]c2cccc(NS(=O)(=O)c3cnn(-c4ccc(C(F)(F)F)cn4)c3)c12 [Compound I-45, N-(3-Methyl-1H-Indazol-4-yl)-1-(5-(Trifluoromethyl)Pyridin-2-yl)-1H-Pyrazole-4-Sulfonamide] | > 2500 | < 400 |  |  |
| C[C@H]1COC(=O)N1c1ccnc(-n2cc(S(=O)(=O)Nc3cccc4cnn(C)c34)cn2)c1 [Compound I-303] | > 2500 | < 400 |  |  |
| Cn1ncc2cccc(NS(=O)(=O)c3cnn(-c4cc([C@@]5(F)CCOC5)ccn4)c3)c21 [Compound I-334] | > 2500 | < 400 |  |  |
| Cn1ncc2cccc(NS(=O)(=O)c3cnn(-c4cc(N5CC(C)(F)C5)ccn4)c3)c21 [Compound I-440, 1-[4-(3-fluoro-3-methylazetidin-1-yl)pyridin-2-yl]-N-(1-methylindazol-7-yl)pyrazole-4-sulfonamide] | > 2500 | < 400 |  |  |
| CC[C@@](C)(OC)c1ccnc(-n2cc(S(=O)(=O)Nc3cccc4cnn(C)c34)cn2)c1 (stereo in doubt) [Compound I-314, 1-(4-(2-methoxybutan-2-yl)pyridin-2-yl)-N-(1-methyl-1H-indazol-7-yl)-1H-pyrazole-4-sulfonamide] | > 2500 | < 400 |  |  |
| CCc1ccc2cnn(C)c2c1NS(=O)(=O)c1cn(-c2ccnc(C(F)(F)F)c2)nn1 [Compound I-27, N-(6-Ethyl-1-Methyl-1H-Indazol-7-yl)-1-(2-(Trifluoromethyl) Pyridin-4-yl)-1H-1,2,3-Triazole-4-Sulfonamide] | 400 to 1000 | > 2500 |  |  |
| COc1ccc2cnn(C)c2c1NS(=O)(=O)c1cnn(-c2cc(C(F)(F)F)ccn2)c1C [Compound I-84, N-(6-Methoxy-1-Methyl-1H-Indazol-7-yl)-5-Methyl-1-(4-(Trifluoromethyl)Pyridin-2-yl)-1H-Pyrazole-4-Sulfonamide] | ≤ 400 | < 400 |  |  |
| CN1CCC[C@@H](n2cc(S(=O)(=O)Nc3cccc4cnn(C)c34)cn2)C1 [Compound I-308, N-(1-methylindazol-7-yl)-1-[(3R)-1-methylpiperidin-3-yl]pyrazole-4-sulfonamide] | > 2500 | > 2500 |  |  |
| C[C@H]1CN(c2ccnc(-n3cc(S(=O)(=O)Nc4cccc5cnn(C)c45)cn3)c2)C(=O)N1C [Compound I-346] | > 2500 | < 400 |  |  |
| COC1(c2ccnc(-n3cc(S(=O)(=O)Nc4cccc5cnn(C)c45)cn3)c2)CN(C)C1 [Compound I-252] | > 2500 | < 400 |  |  |
| Cn1ncc2cccc(NS(=O)(=O)c3cnn(-c4ccccn4)c3)c21 [Compound I-145, N-(1-methyl-1H-indazol-7-yl)-1-(pyridin-2-yl)-1H-pyrazole-4-sulfonamide] | > 2500 |  | < 400 |  |
| COc1ncc2cnn(C)c2c1NS(=O)(=O)c1cnn(-c2cc(N3CCCCC3)ccn2)c1 [Compound I-387, N-(6-methoxy-1-methyl-1H-pyrazolo[4,3-c]pyridin-7-yl)-1-(4-(piperidin-1-yl)pyridin-2-yl)-1H-pyrazole-4-sulfonamide] | > 2500 | < 400 |  |  |
| [2H]C([2H])([2H])n1ncc2cnc(OC)c(NS(=O)(=O)c3cnn(-c4cc(C(C)(F)F)ccn4)c3)c21 [Compound I-411, 1-(4-(1,1-Difluoroethyl)Pyridin-2-yl)-N-(6-Methoxy-1-(Methyl-D3)-1H-Pyrazolo[4,3-C]Pyridin-7-yl)-1H-Pyrazole-4-Sulfonamide] | ≤ 400 | < 400 |  |  |

| Structure (SMILES) | IC50 [1] [nM] | IC50 [2, 3] [nM] | IC50 ([2]; Homo sapiens, Jurkat) [nM] | IC50 ([2]; Jurkat cells, 1 hr compound pre-incubation, aCD3/aCD28/PMA stimulation 4 hr, One-Glo readout) [nM] |
| --- | --- | --- | --- | --- |
| Cc1n[nH]c2cccc(NS(=O)(=O)c3cnn(-c4ccnc(C5CC5)c4)c3)c12 [Compound I-88, 1-(2-Cyclopropylpyridin-4-yl)-N-(3-Methyl-1H-Indazol-4-yl)-1H-Pyrazole-4-Sulfonamide] | > 2500 | < 400 |  |  |
| CCCc1ccc2cnn(C)c2c1NS(=O)(=O)c1cnn(-c2ccnc(C(F)(F)F)c2)c1 [Compound I-38, N-(1-Methyl-6-Propyl-1H-Indazol-7-yl)-1-(2-(Trifluoromethyl) Pyridin-4-yl)-1H-Pyrazole-4-Sulfonamide] | ≤ 400 | < 400 |  |  |
| Cn1ncc2cccc(NS(=O)(=O)c3cnn(-c4cc(N5CC6(CC6)C5)ccn4)c3)c21 [Compound I-368, 1-(4-{5-azaspiro[2.3]hexan-5-yl}pyridin-2-yl)-N-(1-methylindazol-7-yl)pyrazole-4-sulfonamide] | > 2500 | < 400 |  |  |
| COC[C@H](O)c1ccnc(-n2cc(S(=O)(=O)Nc3cccc4cnn(C)c34)cn2)c1 [Compound I-305] | > 2500 | 400 to 1000 |  |  |
| Cn1ncc2cccc(NS(=O)(=O)c3cnn(-c4ccnc(C5CC5)c4)c3)c21 [Compound I-75, 1-(2-Cyclopropylpyridin-4-yl)-N-(1-Methyl-1H-Indazol-7-yl)-1H-Pyrazole-4-Sulfonamide] | > 2500 | 400 to 1000 |  |  |
| COc1ccc2cnn(C)c2c1NS(=O)(=O)c1cnn(-c2cc(N3CC[C@@H](F)C3)ccn2)c1 [Compound I-423] | > 2500 | < 400 |  |  |
| Cn1ncc2ccc(Cl)c(NS(=O)(=O)c3cnn(-c4cc(C(F)(F)F)ccn4)c3)c21 [Compound I-85, N-(6-chloro-1-Methyl-1H-Indazol-7-yl)-1-(4-(Trifluoromethyl)Pyridin-2-yl)-1H-Pyrazole-4-Sulfonamide] | ≤ 400 | < 400 |  |  |
| Cc1cc(NS(=O)(=O)c2cnn(-c3ccnc(C(F)(F)F)c3)c2)c2c(cnn2C)c1 [Compound I-49, N-(1,5-Dimethyl-1H-Indazol-7-yl)-1-(2-(Trifluoromethyl) Pyridin-4-yl)-1H-Pyrazole-4-Sulfonamide] | > 2500 | > 2500 |  |  |
| CC[C@H](OC)c1ccnc(-n2cc(S(=O)(=O)Nc3c(OC)ccc4cnn(C)c34)cn2)c1 [Compound I-317, (S)—N-(6-Methoxy-1-Methyl-1H-Indazol-7-yl)-1-(4-(1-Methoxypropyl)Pyridin-2-yl)-1H-Pyrazole-4-Sulfonamide] | ≤ 400 | < 400 |  |  |
| CC[C@@H](O)c1ccnc(-n2cc(S(=O)(=O)Nc3cccc4cnn(C)c34)cn2)c1 [Compound I-278, (R)-1-(4-(1-hydroxypropyl)pyridin-2-yl)-N-(1-methyl-1H-indazol-7-yl)-1H-pyrazole-4-sulfonamide] | > 2500 | < 400 |  |  |
| CN1CC(O)(c2ccnc(-n3cc(S(=O)(=O)Nc4cccc5cnn(C)c45)cn3)c2)C1 [Compound I-344] | > 2500 | > 2500 |  |  |
| CC1CC(F)(c2ccnc(-n3cc(S(=O)(=O)Nc4cccc5cnn(C)c45)cn3)c2)C1 (stereo not drawn) [Compound I-395, 1-(4-(1-fluoro-3-methylcyclobutyl)pyridin-2-yl)-N-(1-methyl-1H-indazol-7-yl)-1H-pyrazole-4-sulfonamide] | > 2500 |  |  | < 400 |
| Cn1ncc2cccc(NS(=O)(=O)c3cnn(-c4cc(C5(O)CCOC5)ccn4)c3)c21 (stereo in doubt) [Compound I-312, (R)-1-(4-(3-hydroxytetrahydrofuran-3-yl)pyridin-2-yl)-N-(1-methyl-1H-indazol-7-yl)-1H-pyrazole-4-sulfonamide] | > 2500 | < 400 |  |  |
| COC1(c2ccnc(-n3cc(S(=O)(=O)Nc4cccc5cnn(C)c45)cn3)c2)CC(F)C1 (stereo not drawn) [Compound I-99, 1-(4-(3-fluoro-1-methoxycyclobutyl)pyridin-2-yl)-N-(1-methyl-1H-indazol-7-yl)-1H-pyrazole-4-sulfonamide] | > 2500 | < 400 |  |  |
| COc1ccc2cnn(C)c2c1NS(=O)(=O)c1cnn(-c2cc(N3CC(C)(F)C3)ccn2)c1 [Compound I-444, 1-(4-(3-fluoro-3-methylazetidin-1-yl)pyridin-2-yl)-N-(6-methoxy-1-methyl-1H-indazol-7-yl)-1H-pyrazole-4-sulfonamide] | > 2500 | < 400 |  |  |
| COc1ncc2cnn(C)c2c1NS(=O)(=O)c1cnn(-c2cc(C(C)(F)F)ccn2)c1 [Compound I-141, 1-(4-(1,1-Difluoroethyl)Pyridin-2-yl)-N-(6-Methoxy-1-Methyl-1H-Pyrazolo[4,3-C]Pyridin-7-yl)-1H-Pyrazole-4-Sulfonamide] | ≤ 400 | < 400 |  |  |

— US20240150321A1, “PYRAZOLYLSULFONAMIDE COMPOUNDS AND THEIR USE IN THERAPY” (HOTSPOT THERAPEUTICS, INC., priority 2022, published 2024)
